Among the data in patent US12319655B2, “RAF kinase inhibitors and methods of use thereof” (Deciphera Pharmaceuticals, LLC, priority 2021, dated 2025) are IC50 values, retold here.

Some results are limits rather than exact numbers.

For assay [1], the target named is A-Raf kinase (SEQ. ID No: 1) (Homo sapiens (Human), UniProt P10398, Y301D/Y302D). As to the kind of experiment: Biochemical Assay for A-Raf (1). The note with it: Table J, assay version (1); read-out: ARAF (1) IC50. Here is the method:
Biochemical Assay for A-Raf (1)
(§1) Activity of A-Raf kinase (SEQ. ID No: 1) was determined spectroscopically using a coupled pyruvate kinase/lactate dehydrogenase assay that continuously monitors the ATP hydrolysis-dependent oxidation of NADH (e.g., Schindler et al., Science, 2000, 289, 1938-1942). Assays were conducted in 384-well plates (100 μL final volume) using 5.55 nM A-Raf (Sigma), 1.5 units pyruvate kinase, 2.1 units lactate dehydrogenase, 1 mM phosphoenol pyruvate, 0.28 mM NADH, 30.1 nM MEK (SignalChem), and 1 mM ATP in assay buffer (100 mM Tris, pH 7.5, 15 mM MgCl2, 0.5 mM DTT, 0.1% octyl-glucoside, 0.002% (w/v) BSA, and 0.002% Triton X-100). Inhibition of A-Raf was measured by adding serial diluted test compound (final assay concentration of 1% DMSO). A decrease in absorption at 340 nm was monitored continuously for 6 h at 30° C. on a multi-mode microplate reader (BioTek). The reaction rate was calculated using the 4 to 5 h time frame. The reaction rate at each concentration of compound was converted to percent inhibition using controls (i.e., reaction with no test compound and reaction with a known inhibitor) and IC50 values were calculated by fitting a four-parameter sigmoidal curve to the data using Prism (GraphPad software).

Assay [2] deals with B-Raf (V600E) (SEQ. ID NO: 4) kinase (Homo sapiens (Human), UniProt P15056, V600E). Briefly: Biochemical Assay for B-Raf (V600E) (1). The note with it: Table J, BRAF V600E, assay version (1); read-out: BRAF VE (1) IC50. Here is the method:
Biochemical Assay for B-Raf (V600E) (1)
Activity of B-Raf (V600E) (SEQ. ID NO: 4) kinase was determined spectroscopically using a coupled pyruvate kinase/lactate dehydrogenase assay that continuously monitors the ATP hydrolysis-dependent oxidation of NADH (e.g., Schindler et al., Science, 2000, 289, 1938-1942). Assays were conducted in 384-well plates (100 μL final volume) using 0.03 nM B-Raf (SignalChem), 1.5 units pyruvate kinase, 2.1 units lactate dehydrogenase, 1 mM phosphoenol pyruvate, 0.28 mM NADH, 30.1 nM MEK (SignalChem), and 1 mM ATP in assay buffer (100 mM Tris, Ph 7.5, 15 mM MgCl2, 0.5 mM DTT, 0.1% octyl-glucoside, 0.002% (w/v) BSA, and 0.002% Triton X-100). Inhibition of B-Raf (V600E) was measured by adding serial diluted test compound (final assay concentration of 1% DMSO). A decrease in absorption at 340 nm was monitored continuously for 6 h at 30° C. on a multi-mode microplate reader (BioTek). The reaction rate was calculated using the 3 to 4 h time frame. The reaction rate at each concentration of compound was converted to percent inhibition using controls (i.e., reaction with no test compound and reaction with a known inhibitor) and IC50 values were calculated by fitting a four-parameter sigmoidal curve to the data using Prism (GraphPad software).

Assay [3] concerns the target C-Raf kinase (SEQ. ID NO: 3) (Homo sapiens (Human), UniProt P04049, Y340D/Y341D). Briefly: Biochemical Assay for C-Raf (1). The note with it: Table J, assay version (1); read-out: CRAF (1) IC50. Here is the method: Biochemical Assay for C-Raf (1)
as §1, with “C-Raf” for “A-Raf”, “NO: 3)” for “No: 1)”, “0.43” for “5.55”, “Ph” for “pH”

In assay [4] the target is B-Raf kinase (SEQ. ID NO: 2) (Homo sapiens (Human), UniProt P15056). As to the kind of experiment: Biochemical Assay for B-Raf (1). Particulars: Table J, assay version (1); read-out: BRAF (1) IC50. Here is the method: Biochemical Assay for B-Raf (1)
Sequence of B-Raf kinase (SEQ. ID NO: 2) (P15056 416-766): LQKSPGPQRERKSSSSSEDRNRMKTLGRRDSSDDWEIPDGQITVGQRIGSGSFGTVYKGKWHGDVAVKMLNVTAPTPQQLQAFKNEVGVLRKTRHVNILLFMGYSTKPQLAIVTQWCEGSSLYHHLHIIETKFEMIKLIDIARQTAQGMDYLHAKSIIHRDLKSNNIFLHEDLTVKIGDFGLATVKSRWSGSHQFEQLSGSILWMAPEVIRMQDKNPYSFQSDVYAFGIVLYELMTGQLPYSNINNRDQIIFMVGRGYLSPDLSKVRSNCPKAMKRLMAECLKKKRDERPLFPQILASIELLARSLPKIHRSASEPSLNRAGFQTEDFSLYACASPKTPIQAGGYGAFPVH
Activity of B-Raf kinase (SEQ. ID NO: 2) was determined spectroscopically using a coupled pyruvate kinase/lactate dehydrogenase assay that continuously monitors the ATP hydrolysis-dependent oxidation of NADH (e.g., Schindler et al., Science, 2000, 289, 1938-1942). Assays were conducted in 384-well plates (100 μL final volume) using 0.13 nM B-Raf (Sigma), 1.5 units pyruvate kinase, 2.1 units lactate dehydrogenase, 1 mM phosphoenol pyruvate, 0.28 mM NADH, 30.1 nM MEK (SignalChem), and 1 mM ATP in assay buffer (100 mM Tris, Ph 7.5, 15 mM MgCl2, 0.5 mM DTT, 0.1% octyl-glucoside, 0.002% (w/v) BSA, and 0.002% Triton X-100). Inhibition of B-Raf was measured by adding serial diluted test compound (final assay concentration of 1% DMSO). A decrease in absorption at 340 nm was monitored continuously for 6 h at 30° C. on a multi-mode microplate reader (BioTek). The reaction rate was calculated using the 4 to 5 h time frame. The reaction rate at each concentration of compound was converted to percent inhibition using controls (i.e., reaction with no test compound and reaction with a known inhibitor) and IC50 values were calculated by fitting a four-parameter sigmoidal curve to the data using Prism (GraphPad software).

The subject of another assay is A375 cells. As to the kind of experiment: A375 Cell Proliferation Assay (1). The assay is classed as cell-based. Particulars: Homo sapiens, A-375. Here is the method: A375 Cell Proliferation Assay (1)
A375 cells (catalog (#CRL-1619) are obtained from the American Type Culture Collect (ATTC, Manassas, VA). Briefly, cells were grown in DMEM High Glucose supplemented with 10% characterized fetal bovine serum (Invitrogen, Carlsbad, CA) and 1% Penicillin/Streptomycin/L-Glutamine at 37° C., 5% CO2, and 95% humidity. Cells are expanded until reaching 70-95% confluency at which point they are sub-cultured or harvested for assay use. A serial dilution of test compound is dispensed into a 96-well black clear bottom plate in triplicate. Two thousand five hundred cells are added per well in 200 μL complete growth medium in the 96-well plate. Plates are incubated for 67-72 h at 37° C., 5% CO2, and 95% humidity. At the end of the incubation, 40 μL of a 440 μM solution of resazurin (Sigma, St. Louis, MO) in PBS is added to each well of the plate and plates are incubated for an additional 5-6 h at 37° C., 5% CO2, and 95% humidity. Plates are read on a Synergy2 or equivalent reader (Biotek, Winooski VT) using an excitation of 540 nm and an emission of 600 nm. Data is analyzed using Prism software (GraphPad, San Diego, CA) to calculate IC50 values.

Sequence of B-Raf (V600E) (SEQ. ID NO: 4) kinase (P15056 416-766 V600E): as the sequence (P15056 416-766) above, with V185E counted along it
Sequence of A-Raf kinase (SEQ. ID No: 1) (P10398 other isoform, or with tags, fused parts or gaps Y301D (already in the parent)/Y302D (already in the parent)): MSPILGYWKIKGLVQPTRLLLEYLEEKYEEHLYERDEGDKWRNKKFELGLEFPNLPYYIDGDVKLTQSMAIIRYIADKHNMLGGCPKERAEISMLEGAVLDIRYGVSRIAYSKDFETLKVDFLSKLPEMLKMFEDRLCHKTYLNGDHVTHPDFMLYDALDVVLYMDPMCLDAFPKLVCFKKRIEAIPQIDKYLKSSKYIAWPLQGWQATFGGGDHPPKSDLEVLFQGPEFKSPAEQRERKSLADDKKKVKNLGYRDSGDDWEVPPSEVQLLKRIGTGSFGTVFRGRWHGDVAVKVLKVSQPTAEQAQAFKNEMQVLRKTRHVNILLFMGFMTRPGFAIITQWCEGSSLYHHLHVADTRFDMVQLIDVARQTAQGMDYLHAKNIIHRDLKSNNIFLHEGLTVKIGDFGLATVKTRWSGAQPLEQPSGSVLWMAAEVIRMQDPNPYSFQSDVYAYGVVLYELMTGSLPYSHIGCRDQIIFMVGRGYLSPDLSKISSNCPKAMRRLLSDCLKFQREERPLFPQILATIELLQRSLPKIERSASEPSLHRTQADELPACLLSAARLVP
Sequence of C-Raf kinase (SEQ. ID NO: 3) (P04049 307-648 Y340D/Y341D): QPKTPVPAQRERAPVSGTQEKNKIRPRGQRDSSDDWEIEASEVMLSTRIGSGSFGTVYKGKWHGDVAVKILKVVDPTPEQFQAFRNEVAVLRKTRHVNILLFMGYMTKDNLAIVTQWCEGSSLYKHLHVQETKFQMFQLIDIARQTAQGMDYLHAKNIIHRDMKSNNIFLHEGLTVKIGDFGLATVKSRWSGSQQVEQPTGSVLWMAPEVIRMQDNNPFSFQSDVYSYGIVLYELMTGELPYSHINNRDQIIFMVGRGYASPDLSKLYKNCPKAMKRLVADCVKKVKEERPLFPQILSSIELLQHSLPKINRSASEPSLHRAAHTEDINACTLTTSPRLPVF

The IC50 is the midpoint of a concentration-inhibition curve. Consider `CC(=O)Nc1cc(-c2nccc(-c3cc(NC(=O)c4ccnc(C(C)(C)C#N)c4)cnc3C)n2)ccn1` [Example 195], for which the IC50 in assay [1] is 1000 to 10000 nM; in assay [2] it was at most 100 nM; in assay [3] it was at most 100 nM; in assay [4], at most 100 nM; with A375 cells it was 100 to 500 nM.

Take `Cc1ncc(NC(=O)c2ccnc(C(F)(F)F)c2)cc1-c1cccc(-c2ccnc(NC(=O)CN(C)C)c2)c1` [Example 95]: the IC50 in assay [1] is 1000 to 10000 nM; in assay [2], at most 100 nM; in assay [3], at most 100 nM; in assay [4], at most 100 nM; in the assay on A375 cells it was 500 to 1000 nM.

`CC(=O)Nc1cc(-c2cc(-c3cc(NC(=O)c4ccnc(C(C)(C)C#N)c4)c(F)cc3C)cn(C)c2=O)ccn1` [Example 116]: the IC50 in assay [1] was 1000 to 10000 nM; in assay [2] it was at most 100 nM; in assay [3], 100 to 500 nM; in assay [4], 100 to 500 nM; in the assay on A375 cells it was 100 to 500 nM.

For the molecule `CNC(=O)c1cc(-c2cc(-c3cc(NC(=O)c4ccnc(C(F)(F)F)c4)ccc3F)cc(C)n2)ccn1` [Example 66], the IC50 was 1000 to 10000 nM in assay [1]; at most 100 nM in assay [2]; at most 100 nM in assay [3]; 1000 to 10000 nM in assay [4]; 1000 to 10000 nM in the assay with A375 cells.

As to `CC(=O)Nc1cc(-c2cc(-c3cc(NC(=O)c4ccnc(C(F)(F)F)c4)c(F)cc3C)cc(=O)n2C)ccn1` [Example 155], the IC50 is 1000 to 10000 nM in assay [1]; at most 100 nM in assay [2]; 100 to 500 nM in assay [3]; 100 to 500 nM in assay [4]; 1000 to 10000 nM in the assay on A375 cells.

In the case of `CNC(=O)c1cc(-c2cccc(-c3cc(NC(=O)c4cccc(C)c4)cnc3C)c2)ccn1` [Example 91], the IC50 in assay [1] is 1000 to 10000 nM; in assay [2], at most 100 nM; in assay [3] it was at most 100 nM; in assay [4], at most 100 nM; in the assay on A375 cells, 1000 to 10000 nM.

On to `Cc1ncc(NC(=O)C2CCOC2)cc1-c1cccc(-c2cc(NC(=O)C3CC3)ncn2)c1` (centres unmarked) [Example 352], for which the IC50 in assay [1] was in the range of 1000 to 10000 nM; in assay [2], 500 to 1000 nM; in assay [3], 1000 to 10000 nM; in assay [4], 1000 to 10000 nM.

Regarding `Cc1ccc(NC(=O)C2CCN(C)C2)cc1-c1cccc(-c2cc(NC(=O)C3CC3)ncn2)c1` (centres unmarked) [Example 344], the IC50 in assay [1] is 1000 to 10000 nM; in assay [2], 100 to 500 nM; in assay [3], 500 to 1000 nM; in assay [4], 1000 to 10000 nM.

In the case of `Cc1ncc(NC(=O)C2CCOCC2)cc1-c1ccnc(-c2ccnc(NC(=O)C3CC3)c2)n1` [Example 336], the IC50 in assay [1] is 1000 to 10000 nM; in assay [2], 500 to 1000 nM; in assay [3] it was 1000 to 10000 nM; in assay [4] it was 1000 to 10000 nM.

In the case of `Cc1ccc(NC(=O)C23CCC(C#N)(CC2)CC3)cc1-c1ccnc(-c2ccnc(NC(=O)C3CC3)c2)n1` [Example 340], the half-inhibitory concentration (IC50) in assay [1] is 1000 to 10000 nM; in assay [2] it was at most 100 nM; in assay [3], 100 to 500 nM; in assay [4] it was 1000 to 10000 nM.

As for `Cc1ncc(NC(=O)CC2COC2)cc1-c1cccc(-c2cc(NC(=O)C3CC3)ncn2)c1` [Example 356], the IC50 lay in the range of 1000 to 10000 nM in assay [1], 500 to 1000 nM in assay [2], 1000 to 10000 nM in assay [3] and 1000 to 10000 nM in assay [4].

Take `Cc1ccc(NC(=O)c2cc(C(F)(F)F)ccn2)cc1-c1ccnc(-c2ccnc(NC(=O)C3CC3)c2)n1` [Example 188]: the IC50 is 1000 to 10000 nM in assay [1], at most 100 nM in assay [2], at most 100 nM in assay [3] and at most 100 nM in assay [4].

For `CC(=O)Nc1cc(-c2cc(-c3cc(NC(=O)c4ccnc(C(F)(F)F)c4)ccc3C)nn(C)c2=O)ccn1` [Example 34], the IC50 in assay [1], in assay [2], in assay [3] and in assay [4] was 1000 to 10000 nM in each case.

In the case of `COC(C)(C)C(=O)Nc1cc(-c2cc(-c3cc(NC(=O)c4ccnc(C(C)(C)C#N)c4)cnc3C)ccn2)ccn1` [Example 209], the IC50 is 1000 to 10000 nM in assay [1], 100 to 500 nM in assay [2], 500 to 1000 nM in assay [3] and 1000 to 10000 nM in assay [4].

For `CC(=O)Nc1cc(-c2cc(-c3cc(NC(=O)c4ccnc(C(F)(F)F)c4)ccc3C)cc(C(C)(C)O)n2)ccn1` [Example 33], the IC50 in assay [1] is 1000 to 10000 nM; in assay [2], at most 100 nM; in assay [3], 100 to 500 nM; in assay [4], 1000 to 10000 nM.

Regarding `CNC(=O)c1cc(-c2cc(-c3cc(NC(=O)c4cc(C(F)(F)F)ccn4)ccc3C)ccn2)ccn1` [Example 126], the IC50 in assay [1] is 1000 to 10000 nM; in assay [2], at most 100 nM; in assay [3], at most 100 nM; in assay [4], 100 to 500 nM.

Turning to `Cc1ncc(NC(=O)c2ccnc(C(C)(C)C#N)c2)cc1-c1nccc(-c2ccnc3c2CC(=O)N3)n1` [Example 93], the IC50 is 1000 to 10000 nM in assay [1], 100 to 500 nM in assay [2], 500 to 1000 nM in assay [3] and 1000 to 10000 nM in assay [4].
